Assay results as given in patent publication US9635859B2, “Pesticidal compositions and processes related thereto” (Dow AgroSciences LLC, priority 2012, dated 2017).

Test system: Beet Armyworm (Spodoptera exigua)
Test: Bioassays on BAW, 128-well diet tray assay
Format: in vivo
Settings: percent mortality, second instar larvae, 50 μg/cm^2 on artificial diet, five to seven days, 25° C.; Table 3
Description: Certain molecules disclosed in this document were tested against BAW and CEW and CL using procedures described in the following examples. In the reporting of the results, the “BAW & CEW & CL Rating Table” was used (See Table Section).
Bioassays on BAW (Spodoptera exigua)
Bioassays on BAW were conducted using a 128-well diet tray assay. one to five second instar BAW larvae were placed in each well (3 mL) of the diet tray that had been previously filled with 1 mL of artificial diet to which 50 μg/cm^2 of the test compound (dissolved in 50 μL of 90:10 acetone-water mixture) had been applied (to each of eight wells) and then allowed to dry. Trays were covered with a clear self-adhesive cover, and held at 25° C., 14:10 light-dark for five to seven days. Percent mortality was recorded for the larvae in each well; activity in the eight wells was then averaged. The results are indicated in the table entitled “Table 3: Assay Results” (See Table Section).

| SMILES | BAW Rating |
| --- | --- |
| CN1CCC(NC(=O)c2ccc(/C=C/C(c3cc(Cl)c(Cl)c(Cl)c3)C(F)(F)F)cc2Br)CC1 (stereo not drawn) [AC106, (E)-2-Bromo-N-(1-methylpiperidin-4-yl)-4-(4,4,4-trifluoro-3-(3,4,5-trichlorophenyl)but-1-en-1-yl)benzamide] | A (50-100) |
| N#CCN1CCC(NC(=O)c2ccc(/C=C/C(c3cc(Cl)c(Cl)c(Cl)c3)C(F)(F)F)cc2Br)CC1 (stereo not drawn) [AC107] | B (More than 0-Less than 50) |
| O=C(NC1CCN(C2COC2)CC1)c1ccc(/C=C/C(c2cc(Cl)c(Cl)c(Cl)c2)C(F)(F)F)cc1Br (stereo not drawn) [AC108, (E)-2-Bromo-N-(1-(oxetan-3-yl)piperidin-4-yl)-4-(4,4,4-trifluoro-3-(3,4,5-trichlorophenyl)but-1-en-1-yl)benzamide] | B (More than 0-Less than 50) |
| CONC(=O)CNC(=O)c1ccc(/C=C/C(c2cc(Cl)c(Cl)c(Cl)c2)C(F)(F)F)cc1Br (stereo not drawn) [AC110] | A (50-100) |
| C=CCNC(=O)CNC(=O)c1ccc(/C=C/C(c2cc(Cl)c(Cl)c(Cl)c2)C(F)(F)F)cc1Br (stereo not drawn) [AC111] | A (50-100) |
| O=C(NCCc1ccc(Cl)nc1)c1ccc(/C=C/C(c2cc(Cl)c(Cl)c(Cl)c2)C(F)(F)F)cc1Br (stereo not drawn) [AC113] | B (More than 0-Less than 50) |
| O=C(NC1CCNCC1)c1ccc(/C=C/C(c2cc(Cl)c(Cl)c(Cl)c2)C(F)(F)F)cc1Br (stereo not drawn) [AC114, (E)-2-Bromo-N-(piperidin-4-yl)-4-(4,4,4-trifluoro-3-(3,4,5-trichlorophenyl)but-1-en-1-yl)benzamide] | A (50-100) |
| Cc1cc(/C=C/C(c2cc(Cl)cc(Cl)c2)C(F)(F)F)ccc1C(=S)NCc1ccc(Cl)nc1 (stereo not drawn) [AC115, (E)-N-((6-Chloropyridin-3-yl)methyl)-4-(3-(3,5-dichlorophenyl)-4,4,4-trifluorobut-1-en-1-yl)-2-methylbenzothioamide] | A (50-100) |
| Cc1cc(/C=C/C(c2cc(Cl)cc(Cl)c2)C(F)(F)F)ccc1C(=O)N(C)Cc1ccc(Cl)nc1 (stereo not drawn) [AC117] | A (50-100) |
| Cc1cc(/C=C/C(c2cc(Cl)cc(Cl)c2)C(F)(F)F)ccc1C(=O)NCC1CCCO1 (stereo not drawn) [AC118] | A (50-100) |
| O=C(CC(F)(F)F)NC1CCCc2cc(/C=C/C(c3cc(Cl)c(Cl)c(Cl)c3)C(F)(F)F)ccc21 (stereo not drawn) [BC5] | A (50-100) |
| O=C(NC1CCc2cc(/C=C/C(c3cc(Cl)c(Cl)c(Cl)c3)C(F)(F)F)ccc21)C1CC1 (stereo not drawn) [BC6] | A (50-100) |
| O=C(NC1CCCc2cc(/C=C/C(c3cc(Cl)c(Cl)c(Cl)c3)C(F)(F)F)ccc21)C1CC1 (stereo not drawn) [BC7] | A (50-100) |
| O=C(CC(F)(F)F)NC1CCc2cc(/C=C/C(c3cc(Cl)c(F)c(Cl)c3)C(F)(F)F)ccc21 (stereo not drawn) [BC8] | A (50-100) |
| O=C(Cc1ccc(Cl)nc1)NC1CCc2cc(/C=C/C(c3cc(Cl)c(F)c(Cl)c3)C(F)(F)F)ccc21 (stereo not drawn) [BC9] | A (50-100) |
| Fc1c(Cl)cc(C(/C=C/c2ccc3c(c2)CCC3NCCC(F)(F)F)C(F)(F)F)cc1Cl (stereo not drawn) [BC10, (E)-5-(3-(3,5-Dichloro-4-fluorophenyl)-4,4,4-trifluorobut-1-en-1-yl)-N-(3,3,3-trifluoropropyl)-2,3-dihydro-1H-inden-1-amine] | A (50-100) |
| O=C(CC(F)(F)F)NCC(=O)n1ccc2cc(/C=C/C(c3cc(Cl)c(F)c(Cl)c3)C(F)(F)F)ccc21 (stereo not drawn) [BC13, (E)-N-(2-(5-(3-(3,5-Dichloro-4-fluorophenyl)-4,4,4-trifluorobut-1-en-1-yl)-1H-indol-1-yl)-2-oxoethyl)-3,3,3-trifluoropropanamide] | A (50-100) |
| O=C(Cn1ncc2cc(/C=C/C(c3cc(Cl)c(F)c(Cl)c3)C(F)(F)F)ccc2c1=O)NCC(F)(F)F (stereo not drawn) [BC14, (E)-2-(6-(3-(3,5-Dichloro-4-fluorophenyl)-4,4,4-trifluorobut-1-en-1-yl)-1-oxophthalazin-2(1H)-yl)-N-(2,2,2-trifluoroethyl)acetamide] | A (50-100) |
| O=C(NCc1ccc(/C=C/C(c2cc(Cl)cc(Cl)c2)C(F)(F)F)cc1)C1CC1 (stereo not drawn) [CC2] | A (50-100) |
| O=C(CC(F)(F)F)NCc1ccc(/C=C/C(c2cc(Cl)cc(Cl)c2)C(F)(F)F)cc1 (stereo not drawn) [CC3] | A (50-100) |
| CCC(=O)NCc1ccc(/C=C/C(c2cc(Cl)cc(Cl)c2)C(F)(F)F)cc1 (stereo not drawn) [CC4] | A (50-100) |
| O=C(NCc1ccc(/C=C/C(c2cc(Cl)c(Cl)c(Cl)c2)C(F)(F)F)cc1)C1CC1 (stereo not drawn) [CC5] | A (50-100) |
| O=C(CC(F)(F)F)NCc1ccc(/C=C/C(c2cc(Cl)c(Cl)c(Cl)c2)C(F)(F)F)cc1 (stereo not drawn) [CC6] | A (50-100) |
| CC(=O)NCc1ccc(/C=C/C(c2cc(Cl)cc(Cl)c2)C(F)(F)F)cc1Cl (stereo not drawn) [CC7, (E)-N-(2-Chloro-4-(3-(3,5-dichlorophenyl)-4,4,4-trifluorobut-1-en-1-yl)benzyl)acetamide] | A (50-100) |

| SMILES | BAW Rating |
| --- | --- |
| O=C(NCc1ccc(/C=C/C(c2cc(Cl)cc(Cl)c2)C(F)(F)F)cc1Cl)C1CC1 (stereo not drawn) [CC8] | A (50-100) |
| O=C(CC(F)(F)F)NCc1ccc(/C=C/C(c2cc(Cl)cc(Cl)c2)C(F)(F)F)cc1Cl (stereo not drawn) [CC9] | A (50-100) |
| O=C(NCc1ccc(/C=C/C(c2cc(Cl)c(Cl)c(Cl)c2)C(F)(F)F)cc1Cl)C1CC1 (stereo not drawn) [CC11] | A (50-100) |
| O=C(Cc1ccc(Cl)nc1)NCc1ccc(/C=C/C(c2cc(Cl)c(Cl)c(Cl)c2)C(F)(F)F)cc1Cl (stereo not drawn) [CC14] | A (50-100) |
| O=C(NCc1ccc(/C=C/C(c2cc(Cl)c(F)c(Cl)c2)C(F)(F)F)cc1Cl)C1CC1 (stereo not drawn) [CC15] | A (50-100) |
| O=C(NCc1ccc(/C=C/C(c2ccc(Cl)c(Cl)c2)C(F)(F)F)cc1Cl)C1CC1 (stereo not drawn) [CC17] | A (50-100) |
| O=C(CC(F)(F)F)NCc1ccc(/C=C/C(c2ccc(Cl)c(Cl)c2)C(F)(F)F)cc1Cl (stereo not drawn) [CC18] | A (50-100) |
| CSCCC(=O)NCc1ccc(/C=C/C(c2cc(Cl)c(Cl)c(Cl)c2)C(F)(F)F)cc1Cl (stereo not drawn) [CC19] | A (50-100) |
| FC(F)(F)C(/C=C/c1ccc(CNC(=S)C2CC2)c(Cl)c1)c1cc(Cl)c(Cl)c(Cl)c1 (stereo not drawn) [CC20] | A (50-100) |
| O=C(NCc1ccc(/C=C/C(c2cc(Cl)cc(Cl)c2)C(F)(F)F)cc1C(F)(F)F)C1CC1 (stereo not drawn) [CC21] | A (50-100) |
| O=C(NCc1ccc(/C=C/C(c2cc(Cl)c(Cl)c(Cl)c2)C(F)(F)F)cc1C(F)(F)F)C1CC1 (stereo not drawn) [CC22] | A (50-100) |
| O=C(NCc1ccc(/C=C/C(c2cc(Cl)c(Cl)c(Cl)c2)C(F)(F)F)cc1C(F)(F)F)c1cccnc1 (stereo not drawn) [CC23] | A (50-100) |
| O=C(CC(F)(F)F)NCc1ccc(/C=C/C(c2cc(Cl)c(Cl)c(Cl)c2)C(F)(F)F)cc1C(F)(F)F (stereo not drawn) [CC24] | A (50-100) |
| O=C(CC(F)(F)F)NCc1ccc(/C=C/C(c2cc(Cl)c(Cl)c(Cl)c2)C(F)(F)F)cc1Br (stereo not drawn) [CC25] | A (50-100) |
| O=C(NCc1ccc(/C=C/C(c2cc(Cl)c(Cl)c(Cl)c2)C(F)(F)F)cc1Br)C1CC1 (stereo not drawn) [CC26] | A (50-100) |
| O=C(CC(F)(F)F)NCc1ccc(/C=C/C(c2cc(Cl)c(Cl)c(Cl)c2)C(F)(F)F)cc1F (stereo not drawn) [CC27] | A (50-100) |
| O=C(NCc1ccc(/C=C/C(c2cc(Cl)c(Cl)c(Cl)c2)C(F)(F)F)cc1F)C1CC1 (stereo not drawn) [CC28] | A (50-100) |
| O=C(C1CC1)N(Cc1ccccn1)Cc1ccc(/C=C/C(c2cc(Cl)c(Cl)c(Cl)c2)C(F)(F)F)cc1C(F)(F)F (stereo not drawn) [CC29, (E)-N-(Pyridin-2-ylmethyl)-N-(4-(4,4,4-trifluoro-3-(3,4,5-trichlorophenyl)but-1-enyl)-2-(trifluoromethyl)benzyl)cyclopropanecarboxamide] | A (50-100) |
| CS(=O)(=O)CCC(=O)NCc1ccc(/C=C/C(c2cc(Cl)c(Cl)c(Cl)c2)C(F)(F)F)cc1Cl (stereo not drawn) [CC30, (E)-N-(2-Chloro-4-(4,4,4-trifluoro-3-(3,4,5-trichlorophenyl)but-1-en-1-yl)benzyl)-3-(methylsulfonyl)propanamide] | A (50-100) |
| CCNC(=O)NCc1ccc(/C=C/C(c2cc(Cl)cc(Cl)c2)C(F)(F)F)cc1Cl (stereo not drawn) [CC31, (E)-1-(2-Chloro-4-(3-(3,5-dichlorophenyl)-4,4,4-trifluorobut-1-en-1-yl)benzyl)-3-ethylurea] | B (More than 0-Less than 50) |
| CCNC(=O)NCc1ccc(/C=C/C(c2cc(Cl)c(Cl)c(Cl)c2)C(F)(F)F)cc1C(F)(F)F (stereo not drawn) [CC32] | A (50-100) |
| CCNC(=O)NCc1ccc(/C=C/C(c2cc(Cl)c(Cl)c(Cl)c2)C(F)(F)F)cc1Br (stereo not drawn) [CC33] | A (50-100) |
| O=C(NCc1ccc(/C=C/C(c2cc(Cl)c(Cl)c(Cl)c2)C(F)(F)F)cc1Cl)N1CCOCC1 (stereo not drawn) [CC34] | A (50-100) |
| CN(C)C(=O)NCc1ccc(/C=C/C(c2cc(Cl)c(Cl)c(Cl)c2)C(F)(F)F)cc1Cl (stereo not drawn) [CC36, (E)-3-(2-Chloro-4-(4,4,4-trifluoro-3-(3,4,5-trichlorophenyl)but-1-en-1-yl)benzyl)-1,1-dimethylurea] | A (50-100) |
